{"source": "patent US11299496B2", "about": "“Ligands for alpha-7 nicotinic acetylcholine receptors and methods of treating neurological and inflammatory conditions” (Northeastern University, priority 2014, dated 2022)", "biological_target": "T1, human alpha-7 nAChR (Homo sapiens, UniProt P36544)", "T1 construct": "expressed in transfected cells; host or cells: Xenopus laevis oocytes (cRNA injection)", "T1 sequence (P36544 23-502)": "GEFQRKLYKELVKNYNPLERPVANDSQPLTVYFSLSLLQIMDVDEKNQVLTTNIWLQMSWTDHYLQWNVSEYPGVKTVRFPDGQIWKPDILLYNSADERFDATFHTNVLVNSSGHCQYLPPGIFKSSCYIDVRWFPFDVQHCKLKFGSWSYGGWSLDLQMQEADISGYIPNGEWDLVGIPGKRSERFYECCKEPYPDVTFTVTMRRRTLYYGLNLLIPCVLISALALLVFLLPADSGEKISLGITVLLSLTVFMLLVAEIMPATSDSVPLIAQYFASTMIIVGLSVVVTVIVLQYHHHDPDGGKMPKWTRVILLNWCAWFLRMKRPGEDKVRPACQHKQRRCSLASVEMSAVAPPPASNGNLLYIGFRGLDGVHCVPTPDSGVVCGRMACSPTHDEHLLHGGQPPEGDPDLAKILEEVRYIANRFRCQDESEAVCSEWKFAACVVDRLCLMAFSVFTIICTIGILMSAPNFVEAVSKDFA", "test": "Two-electrode voltage clamp of alpha-7 nAChR expressed in Xenopus oocytes (net charge)", "assay_type": "cell-based", "settings": "area under the curve of current vs. time; for Charge Alone: compound alone acting as an allosteric agonist; for Charge +C: compound together with choline or ACh, includes PAM and ago-PAM activity; call rule not given here", "description": "The human alpha-7 nAChR receptor clone was obtained from Dr. Jon Lindstrom {University of Pennsylvania, Philadelphia, Pa.), aid the RIC-3 clone from Dr. Millet Treinin (Hebrew University, Jerusalem, Israel) for the purpose of co-injection with a7 to improve the level and speed of receptor expression (Halevi et al., 2003). After linearization and purification of cloned cDNA's, RNA, transcripts were prepared rising the appropriate mMessage mMachine kit tiom Ambion (Austin, Tex.).\nExpression in X, laeivis Oocytes\nOocytes were obtained from mature (>9 cm) female Xenopus laeivis African frogs (Nasco, Ft. Atkinson, Wis.). Frogs were anesthetized in 0.7 g/L solution of ethyl 3-aminobenzoate methanesulfonate buffered with sodium bicarbonate, and oocytes were surgically removed through an abdominal incision. Harvested oocytes were treated with 1.25 mg/ml collagenase (Worthington Biochemicals, Freehold, N.J.) in calcium-free Barth's solution (88 mM NaCl, 1 mM KCl, 2.38 mM NaHCO3, 0.82 mM MgSO4, 15 mM HEPES, 12 mg/L tetracycline, pH 7.6) for 3-4 hours to remove the follicular layer. Stage-5 oocytes were isolated and injected with 50 nL (5-20 ng) of human alpha-7 and RIC-3 cRNA. Suitable levels of receptor expression were typically achieved 2-6 days after injection of cRNA. For experiments involving the PAM 4BP-TQS/GAT-107, where standard levels of expression result in ion currents too large to be recorded in voltage clamp, experiments were typically conducted 1-3 days after RNA injection.\nTwo-electrode voltage clamp experiments were conducted using OpusXpress6000A (Molecular Devices, Sunnyvale, Calif.), an integrated system that provides automated impalement and voltage clamp of up to eight oocytes in parallel. Both the current and voltage electrodes were filled with 3 M KCl, and oocytes were clamped at a holding potential of −60 mV. Data were collected at 50 Hz and filtered at 20 Hz. The oocytes were bath-perfused with Ringer's solution (115 mM NaCl, 10 mM HEPES, 2.5 mM KCl, 1.8 mM CaCl2, pH 7.3), and agonist solutions were delivered from a 96-well drug plate using disposable tips. Flow rates were set at 2 mL/min, with each drug or control solution delivered in 12 s durations, followed˜by 181 s washouts with Ringer's unless noted otherwise.\nExperimental Protocols and Data Analysis\nResponses of human alpha-7 receptors to agonists were measured as both peek current and net charge measured over a 120 s period beginning with the compound application (Papke and Papke, 2002). […] In experiments involving positive allosteric modulators (PAMs), the fast desensitization of alpha-7 was eliminated, allowing peak currents to be used as a valid measurement of the receptor-mediated responses (Wang et al., 2012; Williams et al., 2011).\nOocytes received two control ACh applications prior to receiving any drug in order to establish a steady reference response, and they received one or more control ACh applications at the end of all experiments. For experiments involving drug incubation through bath applications, all responses were normalized to the average of two ACh control responses taken immediately prior to the switch of bath solution, for each cell individually. These normalization procedures had the effect of compensating for differing levels of receptor expression among the multiple oocytes used in each experiment. Each experiment was conducted on at least four oocytes, with mean values and standard errors (S.E.M.) calculated from their normalized responses. […]"}
{"smiles": "NS(=O)(=O)c1ccc2c(c1)[C@H]1C=CC[C@H]1[C@@H](c1scc(Br)c1Br)N2", "note": "(stereo in doubt) [Compound 38, 4-(3,4-dibromothiophen-2-yl)-3a,4,5,9b-tetrahydro-3H-cyclopenta[c]quinoline-8-sulfonamide]", "values": [{"measurement": "Charge Alone", "value": 18}, {"measurement": "Charge +C", "value": 1246}]}
{"smiles": "NS(=O)(=O)c1ccc2c(c1)[C@H]1C=CC[C@H]1[C@@H](c1csc3ccccc13)N2", "note": "(stereo in doubt) [Compound 39, 4-(benzo[b]thiophen-3-yl)-3a,4,5,9b-tetrahydro-3H-cyclopenta[c]quinoline-8-sulfonamide]", "values": [{"measurement": "Charge Alone", "value": 22}, {"measurement": "Charge +C", "value": 145}]}
{"smiles": "O=C(O)c1ccc2c(c1)[C@H]1C=CC[C@H]1[C@@H](c1ccc(Br)cc1)N2", "note": "(stereo in doubt) [Compound 40, 4-(4-bromophenyl)-3a,4,5,9b-tetrahydro-3H-cyclopenta[c]quinoline-8-carboxylic acid]", "values": [{"measurement": "Charge Alone", "value": "Inactive"}, {"measurement": "Charge +C", "value": "Inactive"}]}
{"smiles": "NS(=O)(=O)c1ccc2c(c1)[C@H]1C=CC[C@H]1[C@@H](c1cc3ccccc3s1)N2", "note": "(stereo in doubt) [Compound 41, 4-(benzo[b]thiophen-2-yl)-3a,4,5,9b-tetrahydro-3H-cyclopenta[c]quinoline-8-sulfonamide]", "values": [{"measurement": "Charge Alone", "value": 3}, {"measurement": "Charge +C", "value": 528}]}
{"smiles": "NS(=O)(=O)c1ccc2c(c1)[C@H]1C=CC[C@H]1[C@@H](c1c(F)c(F)c(F)c(F)c1F)N2", "note": "(stereo in doubt) [Compound 42, 4-(perfluorophenyl)-3a,4,5,9b-tetrahydro-3H-cyclopenta[c]quinoline-8-sulfonamide]", "values": [{"measurement": "Charge +C", "value": 47}]}
{"smiles": "NS(=O)(=O)c1ccc2c(c1)[C@H]1C=CC[C@H]1[C@@H](c1ccccn1)N2", "note": "(stereo in doubt) [Compound 52, 4-(pyridin-2-yl)-3a,4,5,9b-tetrahydro-3H-cyclopenta[c]quinoline-8-sulfonamide]", "values": [{"measurement": "Charge +C", "value": 4}]}
{"smiles": "NS(=O)(=O)c1ccc2c(c1)[C@H]1C=CC[C@H]1[C@@H](c1ccc(Br)c3ccccc13)N2", "note": "(stereo in doubt) [Compound 53, 4-(4-bromonaphthalen-1-yl)-3a,4,5,9b-tetrahydro-3H-cyclopenta[c]quinoline-8-sulfonamide]", "values": [{"measurement": "Charge +C", "value": 76}]}
{"smiles": "CCN(CC)S(=O)(=O)c1ccc2c(c1)[C@H]1C=CC[C@H]1[C@@H](c1ccc(Br)cc1)N2", "note": "(stereo in doubt) [Compound 55, 4-(4-bromophenyl)-N,N-diethyl-3a,4,5,9b-tetrahydro-3H-cyclopenta[c]quinoline-8-sulfonamide]", "values": [{"measurement": "Charge Alone", "value": "Inactive"}, {"measurement": "Charge +C", "value": "Inactive"}]}
{"smiles": "CCOC(=O)Nc1ccc([C@H]2Nc3ccc(S(N)(=O)=O)cc3[C@H]3C=CC[C@H]32)cc1", "note": "(stereo in doubt) [Compound 60, ethyl(4-(8-sulfamoyl-3a,4,5,9b-tetrahydro-3H-cyclopenta[c]quinolin-4-yl)phenyl)carbamate]", "values": [{"measurement": "Charge +C", "value": 276}]}
{"smiles": "NS(=O)(=O)c1ccc2c(c1)[C@H]1C=CC[C@H]1[C@@H](c1ccc(NC(=O)OC3CCCCC3)cc1)N2", "note": "(stereo in doubt) [Compound 61, cyclohexyl(4-(8-sulfamoyl-3a,4,5,9b-tetrahydro-3H-cyclopenta[c]quinolin-4-yl)phenyl)carbamate]", "values": [{"measurement": "Charge +C", "value": 85}]}
{"smiles": "NS(=O)(=O)c1ccc2c(c1)[C@H]1C=CC[C@H]1[C@@H](c1ccc(NC(=O)OC34CC5CC(CC(C5)C3)C4)cc1)N2", "note": "(stereo in doubt) [Compound 62, adamantan-1-yl (4-(8-sulfamoyl-3a,4,5,9b-tetrahydro-3H-cyclopenta[c]quinolin-4-yl)phenyl)carbamate]", "values": [{"measurement": "Charge +C", "value": 35}]}
{"smiles": "NS(=O)(=O)c1ccc2c(c1)[C@H]1C=CC[C@H]1[C@@H](c1ccc(NC(=O)OC3C4CC5CC(C4)CC3C5)cc1)N2", "note": "(stereo in doubt) [Compound 63, adamantan-2-yl (4-(8-sulfamoyl-3a,4,5,9b-tetrahydro-3H-cyclopenta[c]quinolin-4-yl)phenyl)carbamate]", "values": [{"measurement": "Charge Alone", "value": 5}, {"measurement": "Charge +C", "value": 25}]}
{"smiles": "CC(C)(C)CCCc1ccc([C@H]2Nc3ccc(S(N)(=O)=O)cc3[C@H]3C=CC[C@H]32)cc1", "note": "(stereo in doubt) [Compound 66, 4-(4-(4,4-dimethylpentyl)phenyl)-3a,4,5,9b-tetrahydro-3H-cyclopenta[c]quinoline-8-sulfonamide]", "values": [{"measurement": "Charge Alone", "value": 330}, {"measurement": "Charge +C", "value": 1240}]}
{"smiles": "CC(C)OC(=O)Nc1ccc([C@H]2Nc3ccc(S(N)(=O)=O)cc3[C@H]3C=CC[C@H]32)cc1", "note": "(stereo in doubt) [Compound 68, isopropyl (4-(8-sulfamoyl-3a,4,5,9b-tetrahydro-3H-cyclopenta[c]quinolin-4-yl)phenyl)carbamate]", "values": [{"measurement": "Charge Alone", "value": 80}, {"measurement": "Charge +C", "value": 156}]}
{"smiles": "CC(C)(C)CC(=O)Oc1ccc([C@H]2Nc3ccc(S(N)(=O)=O)cc3[C@H]3C=CC[C@H]32)cc1", "note": "(stereo in doubt) [Compound 69, 4-(8-sulfamoyl-3a,4,5,9b-tetrahydro-3H-cyclopenta[c]quinolin-4-yl)phenyl 3,3-dimethylbutanoate]", "values": [{"measurement": "Charge Alone", "value": 25}, {"measurement": "Charge +C", "value": 582}]}
{"smiles": "CC(C)(C)COC(=O)c1ccc([C@H]2Nc3ccc(S(N)(=O)=O)cc3[C@H]3C=CC[C@H]32)cc1", "note": "(stereo in doubt) [Compound 70, neopentyl4-(8-sulfamoyl-3a,4,5,9b-tetrahydro-3H-cyclopenta[c]quinolin-4-yl)benzoate]", "values": [{"measurement": "Charge Alone", "value": 52}, {"measurement": "Charge +C", "value": 487}]}
{"smiles": "NS(=O)(=O)c1ccc2c(c1)[C@H]1C=CC[C@H]1[C@@H](c1csc(Br)n1)N2", "note": "(stereo in doubt) [Compound 85, 4-(2-bromothiazol-4-yl)-3a,4,5,9b-tetrahydro-3H-cyclopenta[c]quinoline-8-sulfonamide]", "values": [{"measurement": "Charge Alone", "value": 10}, {"measurement": "Charge +C", "value": 166}]}
{"smiles": "NS(=O)(=O)c1ccc2c(c1)[C@H]1C=CC[C@H]1[C@@H](c1ccc3sccc3c1)N2", "note": "(stereo in doubt) [Compound 96, 4-(benzo[b]thiophen-5-yl)-3a,4,5,9b-tetrahydro-3H-cyclopenta[c]quinoline-8-sulfonamide]", "values": [{"measurement": "Charge Alone", "value": 116}, {"measurement": "Charge +C", "value": 156}]}
{"smiles": "NS(=O)(=O)c1ccc2c(c1)[C@H]1C=CC[C@H]1[C@@H](c1ccc(Br)cn1)N2", "note": "(stereo in doubt) [Compound 97, 4-(5-bromopyridin-2-yl)-3a,4,5,9b-tetrahydro-3H-cyclopenta[c]quinoline-8-sulfonamide]", "values": [{"measurement": "Charge Alone", "value": 7}, {"measurement": "Charge +C", "value": 357}]}
{"smiles": "CC(C)NS(=O)(=O)c1ccc2c(c1)[C@H]1C=CC[C@H]1[C@@H](c1ccc(Br)cc1)N2", "note": "(stereo in doubt) [Compound 100, 4-(4-bromophenyl)-N-isopropyl-3a,4,5,9b-tetrahydro-3H-cyclopenta[c]quinoline-8-sulfonamide]", "values": [{"measurement": "Charge Alone", "value": "Inactive"}, {"measurement": "Charge +C", "value": "Inactive"}]}
{"smiles": "CC(C)(C)NS(=O)(=O)c1ccc2c(c1)[C@H]1C=CC[C@H]1[C@@H](c1ccc(Br)cc1)N2", "note": "(stereo in doubt) [Compound 101, 4-(4-bromophenyl)-N-(tert-butyl)-3a,4,5,9b-tetrahydro-3H-cyclopenta[c]quinoline-8-sulfonamide]", "values": [{"measurement": "Charge Alone", "value": "Inactive"}, {"measurement": "Charge +C", "value": "Inactive"}]}
{"smiles": "O=S(=O)(NC1CCCCC1)c1ccc2c(c1)[C@H]1C=CC[C@H]1[C@@H](c1ccc(Br)cc1)N2", "note": "(stereo in doubt) [Compound 102, 4-(4-bromophenyl)-N-cyclohexyl-3a,4,5,9b-tetrahydro-3H-cyclopenta[c]quinoline-8-sulfonamide]", "values": [{"measurement": "Charge Alone", "value": "Inactive"}, {"measurement": "Charge +C", "value": "Inactive"}]}
{"smiles": "O=S(=O)(Nc1ccccc1)c1ccc2c(c1)[C@H]1C=CC[C@H]1[C@@H](c1ccc(Br)cc1)N2", "note": "(stereo in doubt) [Compound 103, 4-(4-bromophenyl)-N-phenyl-3a,4,5,9b-tetrahydro-3H-cyclopenta[c]quinoline-8-sulfonamide]", "values": [{"measurement": "Charge Alone", "value": "Inactive"}, {"measurement": "Charge +C", "value": "Inactive"}]}
